# Measurements from patent US20230389543A1, “SOLID PHASE MATRIX FOR CROP PROTECTION” (North Carolina State University, priority 2020, published 2023).
# Where “and” joins values, the source holds several entries; their conditions need not be identical. Equal values may be shown once.
# Tests used:
# [1] = test system: Sweet potatoes (cv. Covington); assay: Sweet potato field trial, yield; assay type: in vivo
# Protocol: (§1) Location: The field trial was conducted on a farm in Woodington, NC. The field was confirmed positive for Meloidogyne enterolobii through NCDA Nematode Assay Lab analysis.
# (§2) Trial set-up: Sweet potatoes (cv. Covington) were planted at 11 inch within row spacing and 42 inch rows. Plots were 4 rows wide by 10 ft long, with 10 feet between plots. Plots were maintained by the grower collaborator using standard agronomic practices. Vigor data, soil samples for mid-season nematode counts, and harvest data was collected. At harvest, the middle two rows of each plot were dug by hand and tubers assessed. Data were analyzed, plotted, and effect of treatment on yield and nematode variables was assessed through mean separation in R (v. 3.6.2).
# Formulations and Application rates: Six different wrap and plant formulations and 2 control treatment were tested.
# For each plot the tuber were collect and sorted into 2 groups: #1 grade and cutters/jumbos. In addition, the number of #1 tubers were counted.
# Root Knot Nematode = assay: Sweet potato field trial, root knot nematode count at harvest; assay type: in vivo, Meloidogyne enterolobii
# Protocol: as §1, §2
# (§3) At harvest a soil sample from each plot was collected and 100 cc of soil extracted to determine nematode populations. Three genera of nematode were observed (RKN, stunt and lesion). Counts for the two highest population species, RKN and Lesion at the harvest sampling are reported per 100 g of soil. Population counts of RKN, lesion, and stunt nematode were transformed (log 10(n+1)) prior to analysis to fit assumptions of normality.
# Lesion Nematode = assay: Sweet potato field trial, lesion nematode count at harvest; assay type: in vivo
# Protocol: as §1, §2, §3
structure (smiles),measurement,setting,value
"O=C(NCCc1ncc(C(F)(F)F)cc1Cl)c1ccccc1C(F)(F)F [Treatment 3, Fluopyram]",Average Total Yield,[1]; Table 12,22.1
same,"Yield #1 Tubers, Average",[1]; average of 4 plots,9.8 kg
same,No. of #1 tubers,[1]; single plot,32 and 36 and 30 and 38
same,Total Yield,[1]; single plot,22.8 kg and 28.05 kg and 20.9 kg and 16.8 kg
same,Yield of #1,[1]; single plot,9.35 kg and 12.15 kg and 9.75 kg and 8.1 kg
same,Yield of Jumbo & Canners,[1]; single plot,13.45 kg and 15.9 kg and 11.15 kg and 8.7 kg
same,Yield #1 Tubers,"[1]; single plot, Table 10, listed as Grower Standard",8.1 kg and 9.4 kg and 12.2 kg and 9.8 kg
same,Average RKN Population at Harvest,Root Knot Nematode; Table 12,12.5 /100 cc soil
same,"RKN Population, Average",Root Knot Nematode; average of 4 plots,12.5
same,Average Lesion Population at Harvest,Lesion Nematode; Table 12,118.75 /100 cc soil
same,"Lesion Population, Average",Lesion Nematode; average of 4 plots,118.75
